≈ marks a conversion by molar mass, not a printed value. Structures can show the parent of a compound that is named as a salt. Where two headings read alike, the source gives them in different places.

Here are results for four compounds from patent publication US12576073B2, “Antiarrhythmic formulation” (InCarda Therapeutics, Inc., priority 2019, dated 2026).

A short description of data set [1]: physchem. To be noted: aqueous buffer.
Data set [2] can be described thus: Solubility comparison of different flecainide salts in 0.1M acid media. Particulars: for pH: Media (0.1M).
A short description of data set [3]: physchem.
A short description of data set [4]: physchem. In kind it is physicochemical. Particulars: Solubility (mg/mL).
Data set [5] in a line: Viscosity and complexation efficiency of flecainide acetate-HPβCD solutions. In kind it is physicochemical. Particulars: solutions adjusted to pH 5.2 with NaOH. From the text:
In this example and the following examples, the (HP)-β-cyclodextrin used is “Cavitron W7 HP7 PHARMA”. The manufacturer (Ashland) specifies: <1.5% beta cyclodextrin (our batch had 1%) and molar substitution is between 0.86 and 1.14 (our batch had 1.05). From the manufacturer's brochure, the typical degree of substitution is 6.0 to 8.0 with an approximate average MW of 1520.
Beyond this concentration, the aerosol output rate can diminish slightly.

Data set [6] is described as follows: physchem. Particulars: thermodynamic from solid. From the text:
The suspension was then magnetic stirred (1000 r/min) at RT for 24 hrs or 48 hrs.

The nature of data set [7]: Solubility of flecainide acetate in binary, ternary and quaternary acid mixtures. To be noted: acid mixture (acetic/nitric/sulfuric acid), 25 °C, aqueous buffer, thermodynamic from solid.
Data set [8] can be described thus: FLE-002 (INSTANT) study: plasma levels of flecainide (Cmax). The format is in vivo. Particulars: human, inhaled, oral inhalation.
Data set [9] has as its system patients with recent onset of symptomatic paroxysmal atrial fibrillation. Put plainly: FLE-002 (INSTANT) Phase 2 study: conversion of AF to sinus rhythm. The format is in vivo, human. To be noted: within 60 minutes of dosing, evaluable patients. From the text:
Patient eligibility for this study is generally consistent with eligibility for IV flecainide. 18 years and older, both male and female sexes are eligible for this study. Inclusion and exclusion criteria are summarized in TABLE 18A and TABLE 18B, respectively.
The study consists of 2 parts: Part A and Part B. Part A (dose finding) evaluates the feasibility of administration of IH Flec. Part B will confirm the dose and will include a pilot sub-study to simulate a patient led scenario with medical supervision.
Part A study. […] IH Flec formulations tested in this study include the ones listed in TABLE 19 (*, “CD” denotes a cyclodextrin-based formulation including 10% (w/v) hydroxypropyl β-cyclodextrin, 90 mM acetic acid buffer, and having a pH of 5.2; **, “iCD-SAC” denotes a cyclodextrin-based formulation including 20% β(w/v) hydroxypropyl β-cyclodextrin, 5 mM acetic acid, and 750 μM saccharin, and having a pH of 5.9).
In this study, for inhalation delivery of flecainide, the estimated total lung doses (eTLDs) were calculated to account for losses of flecainide in the inhalation device and losses of flecainide in subjects' mouth and throat. eTLD was thereby used to denote the dose that actually reached the lungs of the subjects. By design, in all nebulizers there can be a residual volume or mass of drug solution that stays in the nebulizer, and there can also be a percentage of the aerosol caught by subject's throat and mouth. For instance, in this study, it was estimated that 30% of the aerosol was lost in subject's throat and mouth. Therefore the eTLD would be: eTLD=(100−30)%*amount of aerosolized drug that left nebulizer=70%*(amount of drug placed in nebulizer−amount of drug staying in nebulizer).
The AeroEclipse®II BAN inhaler was used for nebulization and inhalation of the exemplary flecainide formulations. It is available as an approved device in several countries across the world including European countries, USA, and Canada. […]

Data set [10] shares this test system. Particulars: inhaled, Total of all dose groups (N = 99).
For data set [11] the test system is unchanged. Put plainly: FLE-002 (INSTANT) study: QRS interval from 12-lead ECG. In kind it is in vivo, human. To be noted: change from baseline.
Data set [12] in a line: Solubility of flecainide in D/L-lactic acid media. Particulars: thermodynamic from solid. In kind it is physicochemical. As to the method:
D-lactic acid, L-lactic acid, or DL-lactic acid was slowly added portionwise to the suspension while stirring. The system was left to equilibrate for 30 minutes, and the pH was determined. The pH was then adjusted to 5.2-6 with NaOH if necessary. After addition of NaOH, the system was again left to equilibrate for 30 minutes before pH was measured. After the desired pH was achieved, the suspension was stirred (1000 rpm) at ambient temperature for 48 hours. At 24 hours and 48 hours of stirring, samples of each solution were centrifuged at 10000 rpm for 2 minutes and filtered with a 0.45 μm membrane to obtain supernatant for pH determination and HPLC analysis. Solids from each sample were also characterized by X-ray powder diffraction (XRPD) analysis.

The test system of another data set is Beagle dogs. Put plainly: 14-day repeat dose face mask inhalation toxicity study in dogs. To be noted: dog, in vivo. From the text: This example describes a 14-day repeated-dose toxicity study via face mask inhalation with 14 day recovery in dogs.
In addition to the aerosol drug concentration, the aerosol particle size distribution was also characterized. The particle size average MMAD and GSD for the Low-, Mid-, and High-dose groups were 2.38 (1.79), 2.03 (1.87) and 2.08 (1.79) microns, respectively, and 1.74 (1.88) microns for vehicle control group. […] Chamber oxygen levels were monitored throughout the exposures. Main study animals were sacrificed on Day 15. Recovery animals were sacrificed on Day 29 following a 14-day recovery period. Endpoints included clinical observations, body weights, ophthalmology, clinical pathology, urinalysis, gross pathology, histopathology, and bioanalytical and toxicokinetic analyses.

Turning to `O=C(NCC1CCCCN1)c1cc(OCC(F)(F)F)ccc1OCC(F)(F)F` (stereo not shown) [Hydrochloric Acid, flecainide hydrochloride], the solubility (as a rule, how much of the substance goes into solution per volume) in the data set “physchem [1]” (Concentration (mg/mL) Freebase) was 5.34 mg/mL. In addition, the pH in [2] (hydrochloride) is 5.0.
With `O=C(NCC1CCCCN1)c1cc(OCC(F)(F)F)ccc1OCC(F)(F)F` (stereo not shown) [flecainide acetate], the solubility in the data set “physchem [3]” (HPβCD solution with acetic acid, pH 4.9, aqueous with cosolvent or surfactant or cyclodextrin) was 136 mg/mL; in “physchem [3]” (HPβCD solution with acetic acid, pH 5.1, aqueous with cosolvent or surfactant or cyclodextrin) it was 135 mg/mL; in “physchem [3]” (HPβCD solution with acetic acid, pH 5.2, aqueous with cosolvent or surfactant or cyclodextrin), 135 mg/mL; in the data set “physchem [3]” (HPβCD solution with acetic acid, pH 5.5, aqueous with cosolvent or surfactant or cyclodextrin), 131 mg/mL; in the data set “physchem [3]” (HPβCD solution without acetic acid, pH 6.3, aqueous with cosolvent or surfactant or cyclodextrin), 125 mg/mL; in the data set “physchem [4]” (pH 5.3, aqueous with cosolvent or surfactant or cyclodextrin) it was 55 mg/mL. In addition, the solubility was 69.7 mg/mL in the data set “physchem [4]” (pH 5.5, aqueous with cosolvent or surfactant or cyclodextrin); 64 mg/mL in the data set “physchem [1]”; around 60 mg/mL in “physchem [6]” (water, solubility of flecainide acetate water solution); 82.4 mg/mL in [7]. Moreover, the “HPβCD molecules complexed with flecainide acetate” value in data set [5] was 80%. Moreover, in data set [2], the pH worked out at 4.6. Besides, the “effect of addition of sodium chloride (e.g. saline) to the formulation” value in data set [2] (XRPD confirmed form conversion) is “precipitation and loss of solubility”. The solubility at 48 h was 110 mg/mL in “physchem [6]” (aqueous with cosolvent or surfactant or cyclodextrin, 48 hrs Flecainide Acetate Solubility); 105 mg/mL in “physchem [6]” (aqueous with cosolvent or surfactant or cyclodextrin, solubility (48 hrs), calculated as freebase); 65.5 mg/mL in the data set “physchem [6]” (water, 48 hrs Flecainide Acetate Solubility). In addition, the solubility at 24 h in the data set “physchem [6]” (aqueous with cosolvent or surfactant or cyclodextrin, maximum solubility, calculated as freebase) was 125 mg/mL.
Turning to `O=C(NCC1CCCCN1)c1cc(OCC(F)(F)F)ccc1OCC(F)(F)F` (stereo not shown) [flecainide], the Cmax (usually the peak of the concentration-time curve) in data set [8] (30 mg, 30 mg eTLD, read-out: Cmax (mean ± SD)) came to 127 ± 99.5 ng/mL. Further, in data set [8] (30 mg, 30 mg eTLD, read-out: Cmax Range), the Cmax lay within 5.8 to 69 ng/mL. Besides, the Cmax in data set [8] (60 mg, 60 mg eTLD, read-out: Cmax (mean ± SD)) worked out at 199 ± 222 ng/mL. Further, the Cmax in data set [8] (60 mg, 60 mg eTLD, read-out: Cmax Range) lay within 6.6 to 817 ng/mL. Moreover, the Cmax in [8] (90 mg, 90 mg eTLD, read-out: Cmax (mean ± SD)) was 248 ± 207 ng/mL. For the same compound, the Cmax in data set [8] (90 mg, 90 mg eTLD, read-out: Cmax Range) was in the range of 17 to 834 ng/mL. Further, the “Conversion Rate (AF to SR)” value in data set [9] (30 mg eTLD) is recorded as 1/10 (10%). Further, the “Conversion Rate (AF to SR)” value in data set [9] (60 mg eTLD) is 7/20 (35%). Besides, the “Conversion Rate (AF to SR)” value in data set [9] (90 mg eTLD) is 7/21 (33%). In addition, in [10], the “Adverse events: Cough” value was 51 (52) n (%), the “Adverse events: Dizziness” value is given as 5 (5) n (%), the “Adverse events: Dysphagia” value was 9 (9) n (%) and the “Adverse events: Dyspnea” value was 6 (6) n (%). Further, in [10], the “Adverse events: Gastrointestinal disorders” value is listed as 23 (23) n (%), the “Adverse events: Hypotension” value is reported as 7 (7) n (%), the “Adverse events: Nervous system disorders” value is 7 (7) n (%) and the “Adverse events: Oropharyngeal pain” value is listed as 14 (14) n (%). In [10], the “Adverse events: Respiratory, thoracic and mediastinal disorders” value is on record as 60 (61) n (%); the “Adverse events: Salivary hypersecretion” value was 8 (8) n (%); the “Adverse events: Throat irritation” value is 12 (12) n (%); the “Adverse events: Vascular disorders” value is listed as 10 (10) n (%). Besides, in data set [10], the “Patients with at least one TEAE” value is on record as 80 (81) n (%); the “Patients with at least one TEAE, Moderate or Severe” value is 35 (35) n (%); the “Patients with at least one TEAE, Severe” value is 2 (2) n (%); the “Patients with at least one TEAE, Study-drug Related” value is 74 (75) n (%). Also, in data set [10], the “Patients with at least one TESAE” value is 7 (7) n (%); the “Patients with at least one TESAE, Moderate or Severe” value was 6 (6) n (%); the “Patients with at least one TESAE, Severe” value is reported as 2 (2) n (%); the “Patients with at least one TESAE, Study-drug Related” value is 4 (4) n (%). The compound also displayed a ΔQRSmax in data set [11] (30 mg eTLD) of 5.5 ± 13.1 ms. The ΔQRSmax in data set [11] (60 mg eTLD) was 4.2 ± 4.6 ms. Besides, in data set [11] (90 mg eTLD), the ΔQRSmax stood at 4.1 ± 3.2 ms. Also, the concentration in solution in data set [12] (20% w/v HPβCD in water with D-lactic acid, aqueous with cosolvent or surfactant or cyclodextrin, 20% w/v HPβCD, D-lactic acid, pH 5.8) (solubility at 24 h) came to 84.8 mg/mL (≈ 205 mM). The same compound came in with a solubility at 48 h in data set [12] (20% w/v HPβCD in water with D-lactic acid, aqueous with cosolvent or surfactant or cyclodextrin, 20% w/v HPβCD, D-lactic acid, pH 5.5) of 88.4 mg/mL (≈ 213 mM). Also, in [12] (20% w/v HPβCD in water with L-lactic acid, aqueous with cosolvent or surfactant or cyclodextrin, 20% w/v HPβCD, L-lactic acid, pH 6.3), the concentration in solution (solubility at 24 h) came to 87.6 mg/mL (≈ 211 mM). The concentration in solution in [12] (20% w/v HPβCD in water with L-lactic acid, aqueous with cosolvent or surfactant or cyclodextrin, 20% w/v HPβCD, L-lactic acid, pH 6) (solubility at 48 h) was 89.3 mg/mL (≈ 216 mM). In data set [12] (HPβCD solution with DL-lactic acid, aqueous with cosolvent or surfactant or cyclodextrin, 20% w/v HPβCD, DL-lactic acid, pH 6.5), this compound gave a solubility at 24 h of 72.4 mg/mL (≈ 175 mM). For the same compound, the solubility at 24 h in data set [12] (pure water with D-lactic acid, aqueous buffer, no excipient (pure water), D-lactic acid, pH 5.1) turned out to be 90.1 mg/mL (≈ 217 mM). In data set [12] (pure water with D-lactic acid, aqueous buffer, no excipient (pure water), D-lactic acid, pH 5.4), this compound registered a solubility at 48 h of 91 mg/mL (≈ 220 mM). The compound further showed a solubility at 24 h in data set [12] (pure water with DL-lactic acid, aqueous buffer, no excipient (pure water), DL-lactic acid, pH 6.1) of 76.3 mg/mL (≈ 184 mM). The solubility at 48 h in data set [12] (pure water with DL-lactic acid, aqueous buffer, no excipient (pure water), DL-lactic acid, pH 6) turned out to be 73.4 mg/mL (≈ 177 mM). The amount in solution in data set [12] (pure water with L-lactic acid, aqueous buffer, no excipient (pure water), L-lactic acid, pH 5.6) (solubility at 24 h) came to 96.6 mg/mL (≈ 233 mM). The solubility at 48 h in data set [12] (pure water with L-lactic acid, aqueous buffer, no excipient (pure water), L-lactic acid, pH 5.1) was found to be 97.8 mg/mL (≈ 236 mM). Further, in the data set on Beagle dogs, the “clinical observation associated with exposure” value is given as “labored respiration during or immediately post exposure”.
On to flecainide nitrate [Nitric Acid], for which the pH in data set [2] came out at 4.0.
